Values after ≈ are worked out from the molar mass of the structure shown.
Experiments:
[1] = Effect of sodium lauryl sulfate on aqueous solubility of 17-AAG; type: physicochemical; conditions: pH 6.0, sodium lauryl sulfate
Excerpt: Formulations of the invention may contain as much as 50% SLS.

[2] = Solubility assay in simulated intestinal fluid (SIF); type: physicochemical; conditions: low melt form; simulated intestinal fluid per USP w/o pancreatin, 24 hours at 37° C.
Protocol: The solubility of an active ingredient may be assayed by its dissolution in a simulated intestinal fluid (SIF) (per USP w/o pancreatin). Conforma Therapeutics has developed a database of SIF solubility data using this assay for a structurally diverse set of compounds that have also been administered orally to mice.
The mixture was incubated with continuous shaking for a predetermined time and temperature, e.g., for 24 hours at 37° C. […] The solubility of the active ingredient is calculated as the difference between the initial and final concentration of the active ingredient in the supernatant normalized to the total volume of SIF used.
The tube was then sonicated for 5 minutes then incubated for 24 hours at 37° C. with shaking. […] Conforma Therapeutics has developed a database of SIF solubility data using this assay for a structurally diverse set of compounds that have also been administered orally to mice.

[3] = Mouse serum pharmacokinetics of low melt 17-AAG in phospholipids; type: in vivo; conditions: Balb/C mice; for 17-AG AUCobs / 17-AG Cmax: metabolite 17-AG
Protocol: Blood was collected at predetermined intervals and the serum was isolated.
Six to 8 week old Balb/C mice were obtained from Harlan Sprague Dawley (Indianapolis, Ind.). The mice were maintained in sterilized filter topped cages or ventilated caging in a room with a 12 h light/12 h dark photoperiod at temperature of 21-23° C. and a relative humidity of 50±5%. Irradiated pelleted food (Harlan Teklad #7912) and autoclaved deionized water were provided ad libitum. Experiments were carried out under institutional guidelines for the proper and humane use of animals in research established by the Institute for Laboratory Animal Research (ILAR).
Drug solutions were prepared and the concentrations were adjusted so that mice received a dose of 2-15 ml/kg administered intravenously (I.V.) as a bolus, orally, or intra-peritoneally (I.P.). […] In I.V. studies blood was sampled at 1, 5, 15, 30, 90 and 120 min. In oral and I.P. studies blood was sampled at 5, 15, 30, 90, 180 minutes and in some cases up to 240 minutes. Blood was collected in capillary tubes, transferred to microcentrifuge tubes, allowed to clot and centrifuged at 14,000 g for 10 minutes at 4° C. to obtain serum.

[4] = aqueous reconstituted lyophilized preparation containing sucrose; cited from earlier work
[5] = PO 40 mg/kg, lipid complex, low melt form

For `C=CCNC1=C2C[C@@H](C)C[C@H](OC)[C@H](O)[C@@H](C)/C=C(\C)[C@H](OC(N)=O)[C@@H](OC)/C=C\C=C(/C)C(=O)NC(=CC1=O)C2=O` [Compound 17-AAG, 17-allylamino-17-demethoxygeldanamycin], the “aqueous solubility versus SLS concentration” value [1] was “increases linearly with increasing concentration of SLS”, the “solubility in SIF” value [2] was 88 µg/mL (≈ 150 µM) and the “17-AAG AUCobs” value ([3]; IP 40 mg/kg, vehicle PMSE) was 1596 µg·min/mL. The “17-AAG Cmax” value ([3]; IP 40 mg/kg, vehicle PMSE) was 11.8 µg/mL, the “17-AG AUCobs” value ([3]; IP 40 mg/kg, vehicle PMSE) was 655 µg·min/mL and the “17-AG Cmax” value ([3]; IP 40 mg/kg, vehicle PMSE) was 5.8 µg/mL. The “% F” value ([3]; IP 40 mg/kg, vehicle PMSE, relative to IV 40 mg/kg) was 91%, the “Total Absorption” value ([3]; IP 40 mg/kg, vehicle PMSE, 17-AAG and 17-AG relative to IV dose) was 96% and the “17-AAG AUCobs” value ([3]; IV 40 mg/kg, vehicle PET) was 1752 µg·min/mL. The “17-AAG Cmax” value ([3]; IV 40 mg/kg, vehicle PET) was 54.5 µg/mL, the “17-AG AUCobs” value ([3]; IV 40 mg/kg, vehicle PET) was 595 µg·min/mL and the “17-AG Cmax” value ([3]; IV 40 mg/kg, vehicle PET) was 6.2 µg/mL. For the same compound, the “17-AAG AUCobs” value [3, 5] was 953 µg·min/mL, the “17-AAG Cmax” value [3, 5] was 7.5 µg/mL and the “17-AG AUCobs” value ([3]; PO 40 mg/kg, lipid complex) was 532 µg·min/mL. For the same compound, the “17-AG Cmax” value ([3]; PO 40 mg/kg, lipid complex) was 4.5 µg/mL and the oral bioavailability [4] was 24%.
